Like-named read-outs stand apart in the source and are kept apart here. Bounds are passed on as bounds.

The test system of one experiment is EGFR. The following applies: read-out: Potency [IC50], cited from earlier work.
A further experiment deals with HER2. The conditions noted are these: read-out: Potency [IC50]; PDB 3RCD; reference or ChEMBL geometric mean; cited from earlier work.
The subject of the next experiment is MCF-7 cells. Kind of experiment: Cell proliferation assay. Type of experiment: cell-based. The conditions noted are these: Homo sapiens, MCF7, 24 h, read-out: Cellular IC50 MCF-7.
Experiment [1] addresses human EGFR cytoplasmic domain, dual T790M/L858R mutations (Homo sapiens, UniProt P00533, L858R/T790M). The experiment is classed as biochemical. The following applies: in vitro.
In experiment [2] the test system is H1975 (T790M/L858R) cells. Put plainly: Cell proliferation assay. The experiment is classed as cell-based. The following applies: Homo sapiens, NCI-H1975, 24 h, read-out: Cellular IC50 H1975 (T790M/L858R).
The test system of the next experiment is A431 (wild-type) cells. Put plainly: Cell proliferation assay. The experiment is classed as cell-based. The conditions noted are these: Homo sapiens, A-431, 24 h, read-out: Cellular IC50 A431 (wild-type).
In another experiment the test system is HER4. The following applies: read-out: Potency [IC50]; PDB 3BBT; reference or ChEMBL geometric mean; cited from earlier work.

Chain of human EGFR cytoplasmic domain, dual T790M/L858R mutations (P00533 669-1210 T790M/L858R): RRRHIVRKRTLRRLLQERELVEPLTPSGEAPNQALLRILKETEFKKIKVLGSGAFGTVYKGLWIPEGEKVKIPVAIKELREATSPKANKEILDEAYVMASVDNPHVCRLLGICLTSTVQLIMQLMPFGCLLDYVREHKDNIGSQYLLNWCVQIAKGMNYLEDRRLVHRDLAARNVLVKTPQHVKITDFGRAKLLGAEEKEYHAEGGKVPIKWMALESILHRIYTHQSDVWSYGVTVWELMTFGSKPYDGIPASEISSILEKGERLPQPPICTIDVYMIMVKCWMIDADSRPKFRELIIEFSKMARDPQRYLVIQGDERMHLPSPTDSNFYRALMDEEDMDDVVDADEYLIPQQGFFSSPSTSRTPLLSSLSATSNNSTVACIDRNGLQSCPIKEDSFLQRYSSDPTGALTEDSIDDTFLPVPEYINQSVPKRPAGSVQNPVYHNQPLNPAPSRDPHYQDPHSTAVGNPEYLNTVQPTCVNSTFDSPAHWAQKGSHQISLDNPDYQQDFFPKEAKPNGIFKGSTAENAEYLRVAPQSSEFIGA

With `CN(C)C/C=C/C(=O)Nc1cc2c(Nc3ccc(F)c(Cl)c3)ncnc2cc1O[C@H]1CCOC1` [0WM], the IC50 in the experiment with EGFR (PDB 4G5J, reference or ChEMBL geometric mean) was 0.5 nM.

Take `COc1cc2ncnc(Nc3ccc(F)c(Cl)c3)c2cc1NC(=O)/C=C/CN1CCCCC1` [1C9]: the IC50 in the experiment with EGFR (PDB 4I23, reference or ChEMBL geometric mean) is 8.12 nM.

In the case of `CC(C)(O)CC(=O)NCCn1ccc2ncnc(Nc3ccc(Oc4cccc(C(F)(F)F)c4)c(Cl)c3)c21` [03P], the IC50 in the experiment on HER2 was 17 nM; in the experiment on EGFR (PDB 3POZ, reference or ChEMBL geometric mean), […].

With `CC(C)(O)CC(=O)NCCc1ccc2ncnc(Nc3ccc(Oc4cccc(C(F)(F)F)c4)c(Cl)c3)c2c1` [A-10, N-(2-(4-((3-Chloro-4-(3-(trifluoromethyl)phenoxy)phenyl)amino)quinazolin-6-yl)ethyl)-3-hydroxy-3-methylbutanamide], the IC50 in the experiment on MCF-7 cells turned out to be 94 nM; in experiment [2], 127 nM; in the experiment on A431 (wild-type) cells, 41 nM. For the same compound, in experiment [1], the “more potency against EGFR T790M than the two control molecules erlotinib and gefitinib” value is “at least 30 fold”.

Turning to `CCN1CCN(Cc2ccc(-c3cc4c(N[C@H](C)c5ccccc5)ncnc4[nH]3)cc2)CC1` [AEE], the IC50 with EGFR (PDB 2J6M, reference or ChEMBL geometric mean) was 10.9 nM.

`C#Cc1cccc(Nc2ncnc3cc(OCCOC)c(OCCOC)cc23)c1` [Erlotinib, erlotinib]: the IC50 in the experiment on MCF-7 cells was more than 1000 nM; with A431 (wild-type) cells, 62 nM.

As to `CS(=O)(=O)CCNCc1ccc(-c2ccc3ncnc(Nc4ccc(OCc5cccc(F)c5)c(Cl)c4)c3c2)o1` [FMM, lapatinib], the IC50 is […] in the experiment with HER4 and […] with EGFR.

As for `COc1cc2ncnc(Nc3ccc(F)c(Cl)c3)c2cc1OCCCN1CCOCC1` [IRE], the IC50 with EGFR (PDB 2ITY, reference or ChEMBL geometric mean) is 53.5 nM.

For the compound `CN(C)CCC(=O)Nc1cccc(-c2c(-c3ccccc3)oc3ncnc(N[C@H](CO)c4ccccc4)c23)c1` [KJ8], in the experiment with EGFR (PDB 4JQ8, reference or ChEMBL geometric mean), the IC50 is 8 nM.

On to `OC[C@@H](Nc1ncnc2oc(-c3ccccc3)c(-c3ccccc3)c12)c1ccccc1` [KJQ], for which, in the experiment with EGFR (PDB 4JQ7, reference or ChEMBL geometric mean), the IC50 is 393 nM.

As to `CN(C)CCCC(=O)Nc1cccc(-c2c(-c3ccccc3)oc3ncnc(N[C@H](CO)c4ccccc4)c23)c1` [KJV], the IC50 in the experiment with EGFR (PDB 4JRV, reference or ChEMBL geometric mean) was 29 nM.
